Measurements: the supplement of paper PMC10307832

These cell lines were tested with COc1cc2nc(N3CCCN(C)CC3)nc(NC3CCN(Cc4ccccc4)CC3)c2cc1OC + Nc1nc2[nH]cc(CCc3ccc(C(=O)N[C@@H](CCC(=O)O)C(=O)O)cc3)c2c(=O)[nH]1 [Pemetrexed] (partner 0.2 µM) (assay: relative viability (nuclei count vs DMSO), 5 days (fraction); higher = more cells survive). Settings: first compound 0.2 µM.
Outline: (§1)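 One day after seeding in 1536-well plates, lung cancer cell lines were dosed by pin tool. Dosing was either single-drug or a fixed anchor-drug dose plus five library-drug doses (not always all listed) in √10 steps. After 5 days, nuclei were stained in one fix-and-stain step and counted on 4× images, and relative viability is the nuclei count of treated wells over that of vehicle wells, given as the median of duplicate plates.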
In the case of COR-L 105, the relative viability is reported as 1.08.
LOU-NH91 showed a relative viability of 0.411.
ChaGo-K-1 gave a relative viability of 0.255.
In the case of NCI-H2405, the relative viability is reported as 1.02.
In the case of HOP-62, the relative viability is reported as 0.318.
With LU99A the relative viability was 0.17.
BEN showed a relative viability of 0.827.
Cell Line HARA has a relative viability of 0.258.
Cell Line HCC-78 has a relative viability of 0.912.
In the case of NCI-H322M, the relative viability is reported as 0.606.
LCLC-97TM1 gave a relative viability of 0.194.
NCI-H2009 was tested, and the relative viability was 1.
Work on A-427 yielded a relative viability of 0.899.
Work on NCI-H441 yielded a relative viability of 0.256.
NCI-H661 gave a relative viability of 0.882.
For NCI-H1734, the relative viability was 0.405.
Cell Line NCI-H460 has a relative viability of 0.063.
Work on NCI-H2347 yielded a relative viability of 0.394.
Cell Line SK-LU-1 has a relative viability of 0.952.
201T showed a relative viability of 0.31.
Work on NCI-H1915 yielded a relative viability of 0.48.
In the case of HCC-827, the relative viability is reported as 0.259.
In the case of LXF-289, the relative viability is reported as 0.924.
NCI-H23 gave a relative viability of 0.66.
NCI-H647 gave a relative viability of 0.161.
CAL-12T was tested, and the relative viability was 1.23.
Cell Line NCI-H1651 has a relative viability of 0.623.
Cell Line EPLC-272H has a relative viability of 0.335.
With NCI-H2228 the relative viability was 0.32.
For NCI-H1355, the relative viability was 1.06.
NCI-H3122 showed a relative viability of 0.206.
NCI-H1437 was tested, and the relative viability was 0.279.
NCI-H1755 was tested, and the relative viability was 0.459.
NCI-H2023 showed a relative viability of 0.161.

Same assay, conditions: first compound 0.6325 µM
Work on COR-L 105 yielded a relative viability of 1.22.
For LOU-NH91, the relative viability was 0.393.
ChaGo-K-1 was tested, and the relative viability was 0.256.
For NCI-H2405, the relative viability was 1.12.
With HOP-62 the relative viability was 0.257.
LU99A gave a relative viability of 0.185.
Work on BEN yielded a relative viability of 0.943.
Work on HARA yielded a relative viability of 0.227.
Cell Line HCC-78 has a relative viability of 0.899.
NCI-H322M gave a relative viability of 0.623.
Work on LCLC-97TM1 yielded a relative viability of 0.156.
In the case of NCI-H2009, the relative viability is reported as 0.972.
With A-427 the relative viability was 1.
For NCI-H441, the relative viability was 0.264.
For NCI-H661, the relative viability was 0.894.
Cell Line NCI-H1734 has a relative viability of 0.414.
NCI-H460 gave a relative viability of 0.0592.
In the case of NCI-H2347, the relative viability is reported as 0.4.
SK-LU-1 was tested, and the relative viability was 0.949.
For 201T, the relative viability was 0.334.
NCI-H1915 was tested, and the relative viability was 0.442.
HCC-827 was tested, and the relative viability was 0.277.
LXF-289 showed a relative viability of 0.879.
Work on NCI-H23 yielded a relative viability of 0.695.
For NCI-H647, the relative viability was 0.199.
With CAL-12T the relative viability was 1.01.
NCI-H1651 gave a relative viability of 0.598.
EPLC-272H gave a relative viability of 0.403.
NCI-H2228 showed a relative viability of 0.347.
Work on NCI-H1355 yielded a relative viability of 1.03.
For NCI-H3122, the relative viability was 0.198.
Cell Line NCI-H1437 has a relative viability of 0.293.
NCI-H1755 gave a relative viability of 0.415.
In the case of NCI-H2023, the relative viability is reported as 0.254.

Same assay, conditions: first compound 2 µM
In the case of COR-L 105, the relative viability is reported as 1.15.
With LOU-NH91 the relative viability was 0.401.
With ChaGo-K-1 the relative viability was 0.262.
With NCI-H2405 the relative viability was 1.11.
In the case of HOP-62, the relative viability is reported as 0.3.
Work on LU99A yielded a relative viability of 0.177.
Cell Line BEN has a relative viability of 1.01.
Cell Line HARA has a relative viability of 0.227.
With HCC-78 the relative viability was 0.918.
In the case of NCI-H322M, the relative viability is reported as 0.581.
With LCLC-97TM1 the relative viability was 0.189.
Work on NCI-H2009 yielded a relative viability of 1.03.
Cell Line A-427 has a relative viability of 1.03.
Work on NCI-H441 yielded a relative viability of 0.246.
Cell Line NCI-H661 has a relative viability of 0.904.
NCI-H1734 was tested, and the relative viability was 0.401.
Cell Line NCI-H460 has a relative viability of 0.0662.
NCI-H2347 was tested, and the relative viability was 0.494.
Cell Line SK-LU-1 has a relative viability of 1.03.
With 201T the relative viability was 0.335.
NCI-H1915 showed a relative viability of 0.503.
Work on HCC-827 yielded a relative viability of 0.215.
For LXF-289, the relative viability was 0.999.
For NCI-H23, the relative viability was 0.918.
NCI-H647 gave a relative viability of 0.19.
Cell Line CAL-12T has a relative viability of 1.19.
In the case of NCI-H1651, the relative viability is reported as 0.597.
Cell Line EPLC-272H has a relative viability of 0.397.
NCI-H2228 gave a relative viability of 0.336.
With NCI-H1355 the relative viability was 1.01.
NCI-H3122 showed a relative viability of 0.19.
For NCI-H1437, the relative viability was 0.36.
NCI-H1755 was tested, and the relative viability was 0.414.
For NCI-H2023, the relative viability was 0.248.

Same assay, conditions: first compound 6.325 µM
Work on COR-L 105 yielded a relative viability of 0.798.
In the case of LOU-NH91, the relative viability is reported as 0.398.
For ChaGo-K-1, the relative viability was 0.264.
Work on NCI-H2405 yielded a relative viability of 1.05.
HOP-62 was tested, and the relative viability was 0.292.
Cell Line LU99A has a relative viability of 0.187.
Cell Line BEN has a relative viability of 0.716.
HARA was tested, and the relative viability was 0.269.
With HCC-78 the relative viability was 1.01.
NCI-H322M showed a relative viability of 0.584.
For LCLC-97TM1, the relative viability was 0.199.
In the case of NCI-H2009, the relative viability is reported as 0.943.
For A-427, the relative viability was 1.03.
NCI-H441 showed a relative viability of 0.276.
In the case of NCI-H661, the relative viability is reported as 0.923.
Work on NCI-H1734 yielded a relative viability of 0.424.
Cell Line NCI-H460 has a relative viability of 0.0719.
Work on NCI-H2347 yielded a relative viability of 0.538.
Cell Line SK-LU-1 has a relative viability of 0.889.
In the case of 201T, the relative viability is reported as 0.279.
NCI-H1915 was tested, and the relative viability was 0.463.
Work on HCC-827 yielded a relative viability of 0.235.
LXF-289 was tested, and the relative viability was 0.828.
For NCI-H23, the relative viability was 0.703.
NCI-H647 showed a relative viability of 0.152.
CAL-12T was tested, and the relative viability was 1.04.
For NCI-H1651, the relative viability was 0.624.
Work on EPLC-272H yielded a relative viability of 0.365.
With NCI-H2228 the relative viability was 0.26.
NCI-H1355 showed a relative viability of 0.945.
In the case of NCI-H3122, the relative viability is reported as 0.2.
NCI-H1437 gave a relative viability of 0.324.
Work on NCI-H1755 yielded a relative viability of 0.368.
NCI-H2023 gave a relative viability of 0.144.

These cell lines were tested with Cc1cc([C@@H](C)Nc2ccccc2C(=O)O)c2nc(N3CCOCC3)cc(=O)n2c1 [AZD6482] + Cc1nc(Nc2ncc(C(=O)Nc3c(C)cccc3Cl)s2)cc(N2CCN(CCO)CC2)n1 [Dasatinib] (partner 0.075 µM) in the same assay as above. Settings: first compound 0.08 µM.
Outline: as §1
COR-L 105 was tested, and the relative viability was 0.287.
For LOU-NH91, the relative viability was 0.394.
With ChaGo-K-1 the relative viability was 0.647.
NCI-H2405 gave a relative viability of 0.161.
In the case of HOP-62, the relative viability is reported as 0.428.
With LU99A the relative viability was 0.562.
In the case of BEN, the relative viability is reported as 0.358.
With HARA the relative viability was 0.268.
With HCC-78 the relative viability was 0.298.
Work on NCI-H322M yielded a relative viability of 0.261.
With LCLC-97TM1 the relative viability was 0.87.
Work on NCI-H2009 yielded a relative viability of 0.2.
For A-427, the relative viability was 0.717.
NCI-H441 was tested, and the relative viability was 0.568.
For NCI-H661, the relative viability was 0.75.
NCI-H1734 was tested, and the relative viability was 0.459.
NCI-H460 gave a relative viability of 0.414.
For NCI-H2347, the relative viability was 0.271.
201T was tested, and the relative viability was 0.645.
In the case of NCI-H1915, the relative viability is reported as 0.298.
For HCC-827, the relative viability was 0.255.
